Assay results reported in patent US8969565B2, “Imidazo[1,2-b]pyridazine-based compounds, compositions comprising them, and methods of their use” (Lexicon Pharmaceuticals, Inc., priority 2012, dated 2015).
Where a name gives a salt, the structure may show the parent alone.

Legend:
AAK1 [1] = biological target: T1, AAK1 (Homo sapiens, UniProt Q2M2I8); test: HEK281 cell-based assay (phospho-mu2 Western blot in transfected HEK293F cells); conditions: 3 hours incubation, read-out: CBA IC50
T1 construct: HA; expressed in transfected cells; host or cells: HEK293F
Summary of the method: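 HEK293F cells co-transfected with full-length human AAK1/HA and Flag/AP2M1 were treated next day with 5 compound concentrations (3-fold dilutions) in DMEM+0.5% FBS for 3 hours at 37° C. Lysates were Western blotted for phospho-mu2, with total mu2 detected by anti-Flag.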

AAK1 [2] = biological target: T1, AAK1; test: P81 filter plate assay; format: biochemical; conditions: full-length human AAK1, Mu2 substrate

T1 sequence (Q2M2I8 1-863 isoform Q2M2I8-2): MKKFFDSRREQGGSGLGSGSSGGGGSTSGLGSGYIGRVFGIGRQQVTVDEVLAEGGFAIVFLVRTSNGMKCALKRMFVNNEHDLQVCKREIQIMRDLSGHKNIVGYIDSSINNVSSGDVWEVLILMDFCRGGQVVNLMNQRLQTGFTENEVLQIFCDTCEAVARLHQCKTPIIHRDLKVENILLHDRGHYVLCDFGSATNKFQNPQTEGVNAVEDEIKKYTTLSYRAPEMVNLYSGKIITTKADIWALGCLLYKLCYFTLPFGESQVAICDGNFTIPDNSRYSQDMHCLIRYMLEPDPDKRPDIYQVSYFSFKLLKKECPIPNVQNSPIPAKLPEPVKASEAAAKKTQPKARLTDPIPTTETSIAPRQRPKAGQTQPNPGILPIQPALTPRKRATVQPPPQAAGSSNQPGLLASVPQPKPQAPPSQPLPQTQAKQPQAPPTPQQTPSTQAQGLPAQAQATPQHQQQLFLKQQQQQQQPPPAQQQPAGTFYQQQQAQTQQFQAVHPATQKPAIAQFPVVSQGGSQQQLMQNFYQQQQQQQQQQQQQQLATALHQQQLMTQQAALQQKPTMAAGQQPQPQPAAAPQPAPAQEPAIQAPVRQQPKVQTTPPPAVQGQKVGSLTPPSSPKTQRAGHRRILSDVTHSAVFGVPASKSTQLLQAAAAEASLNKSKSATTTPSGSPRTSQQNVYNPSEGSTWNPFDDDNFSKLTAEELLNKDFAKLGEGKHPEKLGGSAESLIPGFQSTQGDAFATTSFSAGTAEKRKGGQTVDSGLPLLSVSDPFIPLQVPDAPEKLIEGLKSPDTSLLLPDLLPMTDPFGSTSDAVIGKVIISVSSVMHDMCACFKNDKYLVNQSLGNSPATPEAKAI

## CC(C)NC(=O)N1CCN(c2ccc3ncc(-c4ccccc4)n3n2)CC1 (as salt: hydrochloride) [N-Isopropyl-4-(3-phenylimidazo[1,2-b]pyridazin-6-yl)piperazine-1-carboxamide]
other
  melting point: 217 to 218 °C (dec.)

## CC(C)SC(=O)N1CCN(c2ccc3ncc(-c4ccccc4)n3n2)CC1 (as salt: hydrochloride) [S-Isopropyl 4-(3-phenylimidazo[1,2-b]pyridazin-6-yl)piperazine-1-carbothioate]
other
  melting point: 276 to 277 °C (dec.)

## O=C(N1CCCC1)N1CCN(c2ccc3ncc(-c4ccccn4)n3n2)CC1 (as salt: hydrochloride) [[4-(3-Pyridin-2-yl-imidazo[1,2-b]pyridazin-6-yl)-piperazin-1-yl]-pyrrolidin-1-yl-methanone]
other
  melting point: 202 to 203 °C

## CC(C)OC(=O)N1CCN(c2ccc3ncc(Br)n3n2)C(C)C1 (racemic) [Example 5.6.146, Isopropyl 4-(3-bromoimidazo[1,2-b]pyridazin-6-yl)-3-methylpiperazine-1-carboxylate]
other
  melting point: 52 to 54 °C

## CC(C)OC(=O)N1CCN(c2ccc3ncc(Br)n3n2)CC1C (racemic) [Example 5.6.147, Isopropyl 4-(3-bromoimidazo[1,2-b]pyridazin-6-yl)-2-methylpiperazine-1-carboxylate]
other
  melting point: 144 to 145 °C

## COc1ccccc1-c1cnc2ccc(N3C[C@H]4C[C@@H]3CN4C(=O)OC(C)C)nn12 (stereo in doubt) (as salt: hydrochloride) [Example 5.6.154, Isopropyl 5-(3-(2-methoxyphenyl)imidazo[1,2-b]pyridazin-6-yl)-2,5-diazabicyclo[2.2.1]heptane-2-carboxylate]
other
  melting point: 173 to 174 °C

## CC(C)(C)NC(=O)N1CCN(c2ccc3ncc(Br)n3n2)CC1 [4-(3-Bromoimidazo[1,2-b]pyridazin-6-yl)-N-(tert-butyl)piperazine-1-carboxamide]
other
  melting point: 199 to 200 °C
AAK1 [1]
  IC50: ≤ 100 nM
AAK1 [2]
  IC50: ≤ 10 nM

## CC(C)(C)OC(=O)N1CCN(c2ccc3ncc(-c4ccccc4)n3n2)CC1 [4-(3-Phenyl-imidazo[1,2-b]pyridazin-6-yl)-piperazine-1-carboxylic acid tert-butyl ester]
other
  melting point: 101 to 103 °C (dec.)
AAK1 [1]
  IC50: ≤ 100 nM
AAK1 [2]
  IC50: ≤ 10 nM

## CCCCNc1ccc2ncc(-c3ccc(-c4nnn[nH]4)cc3)n2n1 [Butyl-{3-[4-(1H-tetrazol-5-yl)-phenyl]-imidazo[1,2-b]pyridazin-6-yl}-mine]
other
  melting point: 270 to 271 °C
AAK1 [1]
  IC50: ≤ 1000 nM

## CC(=O)c1ccc(-c2cnc3ccc(N(C)CCCNC(=O)OC(C)(C)C)nn23)s1 [Example 5.6.27, (3-{[3-(5-Acetyl-thiophen-2-yl)-imidazo[1,2-b]pyridazin-6-yl]-methyl-amino}-propyl)-carbamic acid tert-butyl ester]
other
  melting point: 148 to 149 °C

## CCCCNc1ccc2ncc(-c3ccc(-c4noc(=O)[nH]4)cc3)n2n1 [Example 5.6.49, 3-[4-(6-Butylamino-imidazo[1,2-b]pyridazin-3-yl)-phenyl]-4H-[1,2,4]oxadiazol-5-one]
other
  melting point: 253 to 254 °C (dec.)

## CN(CCNc1ccc2ncc(Br)n2n1)C(=O)OC(C)(C)C [Example 5.6.56, [2-(3-Bromo-imidazo[1,2-b]pyridazin-6-ylamino)-ethyl]-methyl-carbamic acid tert-butyl ester]
other
  melting point: 128 to 129 °C

## CC(C)N(CCNc1ccc2ncc(Br)n2n1)C(=O)OC(C)(C)C [Example 5.6.72, [2-(3-Bromo-imidazo[1,2-b]pyridazin-6-ylamino)-ethyl]-isopropyl-carbamic acid tert-butyl ester]
other
  melting point: 154 to 155 °C

## CC(C)OC(=O)N1CCN(c2ccc3ncc(Br)n3n2)CC1 [Example 5.6.102, 4-(3-Bromo-imidazo[1,2-b]pyridazin-6-yl)-piperazine-1-carboxylic acid isopropyl ester]
other
  melting point: 123 to 124 °C

## CC(C)(C)OC(=O)N1CCC[C@H]1CNc1ccc2ncc(I)n2n1 [Example 5.6.107, (S)-2-[(3-Iodo-imidazo[1,2-b]pyridazin-6-ylamino)-methyl]-pyrrolidine-1-carboxylic acid tert-butyl ester]
other
  melting point: 138 to 139 °C

## COc1cnccc1-c1cnc2ccc(N3CCCN(C(=O)OC(C)(C)C)CC3)nn12 [Example 5.6.121, 4-[3-(3-Methoxy-pyridin-4-yl)-imidazo[1,2-b]pyridazin-6-yl]-[1,4]diazepane-1-carboxylic acid tert-butyl ester]
other
  melting point: 115 to 116 °C

## CCCCN(C)c1ccc2ncc(-c3ccc(CN)cc3)n2n1 [[3-(4-Aminomethyl-phenyl)-imidazo[1,2-b]pyridazin-6-yl]-butyl-methyl-amine]
other
  melting point: 99 to 101 °C
AAK1 [1]
  IC50: ≤ 1000 nM
